Structures can show the parent of a compound that is named as a salt.
Assays:
Assay type in all cases: cell-based
[1] = system: PC3 (prostate cancer) cells; assay: MTT cell viability assay, PC3 cells; conditions: Homo sapiens, PC-3, about 24 hours incubation
Experimental: (§1) Briefly, the cell lines were suspended in medium at concentration of about 5×10^4 cells per well in Corning® 96-well tissue culture plates and incubated for about 24 hours. Extracts prepared according to Example 1 were rehydrated, diluted ten times, and each dilution was added to a well of a 96-well plate (using six replicates). Six vehicle controls with media or 0.5% DMSO were run for each 96 well plate as a control. After incubation for about 24 hours, the number of viable cells was determined by the MTT assay method. Briefly, the media was removed from the 96-well plates and replaced with about 100 μl of fresh culture RPMI 1640 medium without phenol red, then about 10 μl of about 12 mM MTT (Sigma) stock solution (5 mg of MTT in about 1 mL of PBS) was added to each well, including the untreated controls. The 96-well plates were then incubated at about 37° C. and at about 5% CO2 for about 4 hours. An 85 μl aliquot of the media was removed from the wells, and 50 μl of DMSO was added to each well and mixed thoroughly with the pipette and incubated at about 37° C. for about 10 minutes. The optical density was measured at 590 nm with a microplate reader to determine the number of viable cells. The percentage of viability was calculated as: (ODt/ODc)×100%, where ODt is the mean optical density of wells treated with the tested sample and ODe is the mean optical density of untreated cells. […]

[2] = system: HeLa (Cervical carcinoma) cells; assay: MTT cell viability assay, HeLa cells; conditions: Homo sapiens, about 24 hours incubation
Experimental: as §1

[3] = system: CACO (colorectal carcinoma) cells; assay: MTT cell viability assay, CACO cells; conditions: Homo sapiens, about 24 hours incubation
Experimental: as §1

[4] = system: A-549 (Lung carcinoma) cells; assay: MTT cell viability assay, A-549 cells; conditions: Homo sapiens, A549, about 24 hours incubation
Experimental: as §1

[5] = system: HCT-116 (Colon carcinoma) cells; assay: MTT cell viability assay, HCT-116 cells; conditions: Homo sapiens, about 24 hours incubation
Experimental: as §1

CC[C@]1(O)C[C@@H]2CN(CCc3c([nH]c4ccccc34)[C@@](C(=O)OC)(c3cc4c(cc3OC)N(C)[C@H]3[C@@](O)(C(=O)OC)[C@H](OC(C)=O)[C@]5(CC)C=CCN6CC[C@]43[C@@H]65)C2)C1 [Vinblastine Sulfate, vinblastine sulfate]
IC50 [1]: 21.2 ± 0.9 µg/mL
IC50 [2]: 59.7 ± 2.1 µg/mL
IC50 [3]: 30.3 ± 1.4 µg/mL
IC50 [4]: 24.6 ± 0.7 µg/mL
IC50 [5]: 3.5 ± 0.2 µg/mL
